Laboratory results taken from patent US20130040979A1, “CCR1 INHIBITORS USEFUL FOR THE TREAMENT OF MULTIPLE MYELOMA AND OTHER DISORDERS” (Millennium Pharmaceuticals, Inc., priority 2007, published 2013).

Columns and labels:
Assay type in all cases: cell-based, human
[1] = test system: osteoclasts generated from peripheral blood mononuclear cells (PBMCs); assay: Osteoclast formation and TRAP assay
Method: Osteoclast formation. Osteoclasts were generated from peripheral blood mononuclear cells (PBMCs) from healthy volunteers by Ficoll-Paque gradient separation and cultured in 6-well or 96-well plates (0.5×10^6 cells/cm^2). After 2 hours, nonadherent PBMCs were removed, and adherent cells were cultured for 21 days in α-MEM containing 10% FBS and 1% penicillin-streptomycin (Mediatech, Herndon, Va.), as well as 50 ng/mL of macrophage colony-stimulating factor (M-CSF; R&D Systems, Minneapolis, Minn.) and RANKL (PeproTech, Rocky Hill, N.J.).
After 3 weeks, cells were fixed with citrate-acetone solution and stained for tartrate-resistant acid phosphatase (TRAP) using an acid phosphatase leukocyte staining kit (Sigma Chemical) according to the manufacturer's instructions. TRAP^+ OCs containing 3 or more nuclei per cell were enumerated. Each OC formation assay was performed at least 3 times using PBMCs from different donors.

[2] = test system: osteoclast activity (bone resorption); assay: Pit formation assay (osteoclast bone resorption on dentin slices); conditions: 10 nM, 3 weeks
Method: Osteoclast activity was assayed by bone resorption enumerating resorption pits. PBMCs were cultured (0.5×10^6 cells/well) on dentin slices (Immunodiagnostic Systems, Boldon, United Kingdom) in 96-well plates as per the manufacturer's guidelines, and then stimulated with RANKL and M-CSF (50 ng/mL); Compound 51 was added as indicated in FIG. 2. After 3 weeks, adherent cells were scraped off gently with 0.1% Triton. Bone slices were washed in distilled water and stained with 1% toluidine solution. Resorption pits were then quantified by light microscopy using the public domain National Institutes of Health (NIH) Image J software version 1.36b. Each pit area assay was performed at least 3 times with PBMCs from different donors.

[3] = test system: multiple myeloma cells co-cultured with osteoclasts; assay: Long-term co-culture of osteoclasts and multiple myeloma cells
Text: MM primary cells: Patient tumor cells were isolated as described in Kiziltepe et al., Blood 110:709-718 (2007). Following appropriate informed consent, obtained in accordance with the Declaration of Helsinki and with approval by the Institutional Review Board of the Dana-Farber Cancer Institute (Boston, Mass.), MM patient cells were separated from bone marrow (BM) samples by antibody-mediated positive selection using anti-CD138 magnetic activated cell separation microbeads (Miltenyi Biotech, Gladbach, Germany).
(§1) Co-culture experiments: Osteoclasts were harvested with cell dissociation buffer (Invitrogen, Carlsbad, Calif.) and seeded in 96-well or 24-well plates (approximately 1.5−3×10^4 cells/cm^2). After washing, multiple myeloma cells were added to the wells and incubated with media or with Compound 51 (10 nM) for the specified times at 37° C. For multiple myeloma cell proliferation, DNA synthesis was measured by tritiated thymidine uptake (3H-TdR; Perkin Elmer, Boston, Mass.), pulsing multiple myeloma cells with 3H-TdR (0.5 μCi/well [0.0185 MBq]L) during the last 8 hours of 48-hour cultures. At the end of the culture, cells were harvested onto paper filters with an automatic cell harvester (Cambridge Technology, Cambridge, Mass.) and counted using the LKB Betaplate scintillation counter (Wallac, Gaithersburg, Md.). To assess cell survival, viable multiple myeloma cells were counted by trypan blue staining.
Osteoclasts were plated in a 24-well plate (3×10^4 cells/well) with either INA6 mutliple myeloma cells (5×10^3 cells/well) or primary patient multiple myeloma cells (3×10^5 cells/well) for 5 days using the general method described above.

INA6 cells = assay: Short-term co-culture of osteoclasts and multiple myeloma cells (thymidine uptake); conditions: 48 hours
Method: as §1
Osteoclasts were seeded in a 96-well plate at a density of 10^4 cells/well and cocultured with INA6 cells (3×10^4 cells/well) for 48 hours.

[4] = test system: multiple myeloma cell adhesion to osteoclasts; assay: Adhesion assay: multiple myeloma cells to osteoclasts; conditions: 6 hours incubation; independent of CCR1 expression on MM cells
Method: (§2) Cell lines: The dexamethasone (Dex)-sensitive (MM.1S) human MM cell line was provided by Dr Steven Rosen (Northwestern University, Chicago, Ill.). The INA6 human IL-6-dependent MM cell line was provided by Dr Renate Burger (University of Kiel, Kiel, Germany) (see Burger et al., J. Hematol. 2:42-53 (2001)) and cultured in the presence of 2.5 ng/mL IL-6 (R&D Systems, Minneapolis, Minn.). The OPM1 myeloma cell line was provided by Dr Lief Bergsagel (Mayo Clinic, Scottsdale, Ariz.), and the U266 cell line was obtained from the American Type Culture Collection (Rockville, Md.). All MM cell lines were cultured in RPMI 1640 media (Sigma Chemical) containing 10% fetal bovine serum (FBS), 2 mM L-glutamine, 100 U/mL penicillin, and 100 μg/mL streptomycin (Gibco, Grand Island, N.Y.).
(§3) Multiple myeloma cell lines were labeled with calcein AM (Invitrogen) according to the manufacturer's instructions and plated in a 96-well plates with OCs, fibronectin (FBN; 20 μg/mL), or media, with or without Compound 51. After 6 hours of incubation, plates were washed and fluorescence of the adherent cells was measured using the Multimode Reader Mithras LB 940 (Berthold Technologies, Wildbad, Germany). […] As also shown in FIG. 3, there were no effects on MM cell adhesion to fibronection (FBN).

[5] = test system: MM cell adhesion to fibronectin (FBN); assay: Adhesion assay: multiple myeloma cells to fibronectin; conditions: 6 hours incubation, FBN 20 μg/mL
Method: as §2, §3

Compound: CC(C)(O)c1ccc2c(c1)C(=CCCN1CC[C@](O)(c3ccc(Cl)cc3)C(C)(C)C1)c1cccnc1CO2 [Compound 51, (4S)-4-(4-chlorophenyl)-1-{3-[7-(1-hydroxy-1-methylethyl)[1]benzoxepino[3,4-b]pyridin-5(11H)-ylidene]propyl}-3,3-dimethylpiperidin-4-ol]
- reduction of osteoclast number compared to control ([1]; 10 nM, 3 weeks, TRAP+ OCs with 3 or more nuclei, p<0.05): 40-60%
- dose dependence of decrease in osteoclast number ([1]; doses up to 100 nM): No dose-dependent effect
- resorptive tracks and pit numbers ([2]; dentin slices): almost complete abrogation
- bone resorption area, mean±SD, of total area per slice ([2]; control 8.7%±1.9%, P<0.01): 2.4%±1.2
- survival advantage conferred by osteoclasts ([3]; INA6 cells, 5 days co-culture, 10 nM): almost completely abrogated
- survival advantage conferred by osteoclasts ([3]; MM1.S cells (data not shown)): same effect was also noted
- survival advantage conferred by osteoclasts ([3]; primary MM cells, 5 days co-culture, 10 nM): almost completely abrogated
- antiproliferative effect on MM cells alone (INA6 cells; no osteoclasts): only modest antiproliferative effects
- reduction of MM cell proliferative response induced by OCs (INA6 cells; INA6 cells co-cultured with osteoclasts, P<0.05): 50%
- multiple myeloma cell adhesion to osteoclasts [4]: almost complety inhibited
- MM cell adhesion to fibronectin (FBN) [5]: no effects
